Test results as given in BindingDB's records for patent US10696682 (G1 Therapeutics, 2020).

Molecular target: Cyclin-dependent kinase 2/G1/S-specific cyclin-E1 (Homo sapiens, UniProt P24941+P24864)
Test: Biological Activity Assay
Protocol: Kinase enzymatic reactions were performed in 384-well microplates using a 12-channel Caliper LabChip instrument as a detection device. […] As substrate and product are separated, two peaks of fluorescence are observed. Change in the relative fluorescence intensity of the substrate and product peaks is the parameter measured, reflecting enzyme activity. In the presence of an inhibitor, the ratio between product and substrate is altered. […] Potential inhibitor compounds (as HCl salts) were tested using 12-point dose response curves in single point at the Km for ATP.

Row | SMILES | IC50 [µM]
1 | CC(C)C1CNC(=O)C2=CC3C=NC(Nc4ccc(N5CCN(C)CC5)cn4)=NC3N21 (centres undefined) [US10696682, Compound 7] | > 100
2 | CN1CC2(CCCC2)N2C(=CC3C=NC(Nc4ccc(N5CCNCC5)cn4)=NC32)C1=O (centres undefined) [US10696682, Compound 31] | > 100
3 | CCC(C)[C@H]1CN(C)C(=O)C2=CC3C=NC(Nc4ccc(N5CCNCC5)cn4)=NC3N21 (some centres undefined) [US10696682, Compound 19] | > 100
4 | CCC(C)[C@H]1CN(C)C(=O)C2=CC3C=NC(Nc4ccc(N5CCN(C)CC5)cn4)=NC3N21 (some centres undefined) [US10696682, Compound 18] | > 100
5 | CN1CCN(c2ccc(NC3=NC4C(C=N3)C=C3C(=O)N[C@H]5CCC[C@@H]5N34)nc2)CC1 (some centres undefined) [US10696682, Compound 48] | > 100

Other lines, results leading:

Row | IC50 [µM] | SMILES
6 | > 100 | CC(C)[C@H]1CN(C)C(=O)C2=CC3C=NC(Nc4ccc(N5CCNCC5)cn4)=NC3N21 (some centres undefined) [US10696682, Compound 11]
7 | > 100 | CC(C)C[C@H]1CN(C)C(=O)C2=CC3C=NC(Nc4ccc(N5CCNCC5)cn4)=NC3N21 (some centres undefined) [US10696682, Compound 15]
8 | > 100 | CC(C)CC1CN(C)C(=O)C2=CC3C=NC(Nc4ccc(N5CCNCC5)cn4)=NC3N21 (centres undefined) [US10696682, Compound 47]
9 | > 100 | CN1CCN2C(=CC3C=NC(Nc4ccc(N5CCNCC5)cn4)=NC32)C1=O (centres undefined) [US10696682, Compound 5]
